Experimental data as given in ChEMBL document CHEMBL1153186, “In vitro antitubercular and antimicrobial activities of 1-substituted quinoxaline-2,3(1H,4H)-diones” (2010).

What was measured:
Format in all cases: functional
Details in all cases: read-out: IZ
Staphylococcus aureus [1] = assay: Antibacterial activity against Staphylococcus aureus at 100 ug/disk by agar plate disk diffusion method
Escherichia coli [2] = assay: Antibacterial activity against Escherichia coli at 100 ug/disk by agar plate disk diffusion method
Proteus vulgaris [3] = assay: Antibacterial activity against Proteus vulgaris at 100 ug/disk by agar plate disk diffusion method
Pseudomonas aeruginosa [4] = assay: Antibacterial activity against Pseudomonas aeruginosa at 100 ug/disk by agar plate disk diffusion method
Aspergillus niger [5] = assay: Antifungal activity against Aspergillus niger at 100 ug/disk by agar plate disk diffusion method
Candida albicans [6] = assay: Antifungal activity against Candida albicans at 100 ug/disk by agar plate disk diffusion method
Aspergillus niger [7] = assay: Antifungal activity against Aspergillus niger at 50 ug/disk by agar plate disk diffusion method
Candida albicans [8] = assay: Antifungal activity against Candida albicans at 50 ug/disk by agar plate disk diffusion method
Staphylococcus aureus [9] = assay: Antibacterial activity against Staphylococcus aureus at 50 ug/disk by agar plate disk diffusion method
Escherichia coli [10] = assay: Antibacterial activity against Escherichia coli at 50 ug/disk by agar plate disk diffusion method
Proteus vulgaris [11] = assay: Antibacterial activity against Proteus vulgaris at 50 ug/disk by agar plate disk diffusion method
Pseudomonas aeruginosa [12] = assay: Antibacterial activity against Pseudomonas aeruginosa at 50 ug/disk by agar plate disk diffusion method

SMILES | zone of inhibition at 100 µg/disc (Staphylococcus aureus [1]) [mm] | zone of inhibition at 100 µg/disc (Escherichia coli [2]) [mm] | zone of inhibition at 100 µg/disc (Proteus vulgaris [3]) [mm] | zone of inhibition at 100 µg/disc (Pseudomonas aeruginosa [4]) [mm] | zone of inhibition at 100 µg/disc (Aspergillus niger [5]) [mm] | zone of inhibition at 100 µg/disc (Candida albicans [6]) [mm] | zone of inhibition at 50 µg/disc (Aspergillus niger [7]) [mm] | zone of inhibition at 50 µg/disc (Candida albicans [8]) [mm] | zone of inhibition at 50 µg/disc (Staphylococcus aureus [9]) [mm] | zone of inhibition at 50 µg/disc (Escherichia coli [10]) [mm] | zone of inhibition at 50 µg/disc (Proteus vulgaris [11]) [mm] | zone of inhibition at 50 µg/disc (Pseudomonas aeruginosa [12]) [mm]
O=C1c2ccccc2C(=O)N1Cn1c(=O)c(=O)[nH]c2ccccc21 | 29 | 30 | 31 | 34 | 23 | 23 | – | – | – | – | – | –
Clc1ccccc1C(c1ccccc1)(c1ccccc1)n1ccnc1 [CLOTRIMAZOLE] | – | – | – | – | – | – | 21 | 13 | – | – | – | –
O=c1[nH]c2ccccc2n(CN(c2ccccc2)c2ccccc2)c1=O | 26 | 30 | 30 | 35 | 28 | 20 | – | – | – | – | – | –
CN(C)c1ccc(/C=C/C(=O)n2c(=O)c(=O)[nH]c3ccccc32)cc1 | 18 | 33 | 33 | 31 | 0 | 0 | – | – | – | – | – | –
CC1=NNC(=O)C1Cn1c(=O)c(=O)[nH]c2ccccc21 (stereo not given) | 33 | 37 | 32 | 39 | 23 | 21 | – | – | – | – | – | –
CC(=O)n1c(=O)c(=O)[nH]c2ccccc21 | 20 | 24 | 26 | 29 | 20 | 0 | – | – | – | – | – | –
O=C(/C=C/c1ccccc1)n1c(=O)c(=O)[nH]c2ccccc21 | 20 | 26 | 30 | 29 | 24 | 18 | – | – | – | – | – | –
O=c1[nH]c2ccccc2n(Cn2nnc3ccccc32)c1=O | 29 | 39 | 34 | 39 | 28 | 20 | – | – | – | – | – | –
O=c1[nH]c2ccccc2n(Cn2cnc3ccccc32)c1=O | 36 | 33 | 32 | 35 | 25 | 18 | – | – | – | – | – | –
CCn1cc(C(=O)O)c(=O)c2ccc(C)nc21 [NALIDIXIC ACID] | – | – | – | – | – | – | – | – | 24 | 25 | 34 | 22
COc1cc(O)ccc1/C=C/C(=O)n1c(=O)c(=O)[nH]c2ccccc21 | 16 | 16 | 18 | 18 | 16 | 10 | – | – | – | – | – | –
